Experimental findings from paper doi:10.1101/2025.04.16.649181, “Design of peptide-based PAC1 antagonists combining molecular dynamics simulations and a biologically relevant cell-based assay” (bioRxiv, 2025) are described below.

One may read the IC50 as the concentration that inhibits the measured activity by half.

Experiment [1] addresses T1, PAC1 (endogenous, mainly PAC1null, SH-SY5Y) (Homo sapiens, UniProt P41586).
T1 construct: Neuroblastoma SH-SY5Y cells endogenously xpressing hPAC1 and engineered to express CBS; endogenous in cells
T1 sequence (P41586 21-468): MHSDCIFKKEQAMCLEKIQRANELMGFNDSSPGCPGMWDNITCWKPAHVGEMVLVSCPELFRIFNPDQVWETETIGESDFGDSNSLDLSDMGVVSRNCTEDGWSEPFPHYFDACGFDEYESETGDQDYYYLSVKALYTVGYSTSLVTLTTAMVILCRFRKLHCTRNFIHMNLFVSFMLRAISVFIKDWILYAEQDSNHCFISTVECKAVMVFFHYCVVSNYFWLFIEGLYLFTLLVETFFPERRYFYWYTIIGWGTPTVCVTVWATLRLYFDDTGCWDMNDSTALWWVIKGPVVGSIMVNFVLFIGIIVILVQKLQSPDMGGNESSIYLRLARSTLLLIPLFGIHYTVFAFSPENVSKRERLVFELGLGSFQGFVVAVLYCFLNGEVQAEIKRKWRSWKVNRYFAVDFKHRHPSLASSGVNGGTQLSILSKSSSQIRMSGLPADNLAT
In words: CBS assay, antagonism of P27-induced cAMP in SY5Y_CBS cells. Type of experiment: cell-based. Particulars: for antagonist potency vs P6-27: 0.2 nM P27 (EC80); for IC50: IC50 against P27, 0.2 nM P27 (EC80), n = 3, Figure 7C. The text has this:
(§1) A single clone of the SH-SY5Y cell line stably expressing a cAMP biosensor (SY5Y_CBS) was generated as previously described for HEK293_CBS and NS-1_CBS cells, using the retroviral vector pLHCX containing the cAMP biosensor and a hygromycin resistance gene. A HEK293_CBS_hPAC1 cell clone was generated by transducing HEK293_CBS cells with the lentiviral vector pLX304 (GeneCopoeia, Rockville, MD) encoding the human PAC1hop (PAC1; GenBank accession no. BC143679) and a blasticidin resistance gene . Following transduction, cells were selected with the appropriate antibiotics (hygromycin or blasticidin) for 2 weeks. Single-cell clones were subsequently isolated by limiting dilution and assessed for PACAP-induced cAMP production using concentration-response assays.
(§2) The cyclic AMP biosensor (CBS) assay was performed using Gibco CO2-independent medium (ThermoFisher, catalog #18045-088). HEK293_CBS_hPAC1 or SY5Y_CBS cells were seeded in 96-well black/clear-bottom plates (MidSci, Fenton, MO) at a density of 6,000 cells per well and incubated overnight. The following day, the medium in each well was aspirated and replaced with fresh medium containing 1.5 mg/mL D-luciferin potassium salt substrate (Gold Biotechnology, St. Louis, MO) and 500 μM isobutyl-1-methylxanthine (IBMX), followed by incubation at 37 °C for 1 hour. Cells were then pre-treated with antagonists for 10 minutes before the addition of agonists (PACAP or forskolin). Plates were incubated at 37 °C for 1 hour, then brought to room temperature and equilibrated for 30 minutes. Luminescence was measured using a GloMax plate reader (Promega, Madison, WI).
For the high-throughput CBS screening assays, cells were plated at 2,000 (HEK293_CBS_hPAC1) or 3,000 (SY5Y_CBS) cells per well in […] of Gibco CO2-independent medium, in white 1,536-well tissue culture treated plates. After overnight incubation at 37 °C and 5% CO2, […] of luciferin/IBMX solution was added to the wells (final concentrations of 500 μM each) and plates were incubated at 37 °C for 1 hour. SMOLs (22.5 nL) were transferred to the assay plate, using a pintool device (HEK293 screen) or an ECHO acoustic liquid handler (Beckman Coulter, Brea, CA, SY5Y screen), to final concentrations (4 concentrations per compound) between 0.5 and 30 μM and cells were incubated at 37 °C for 1 hour (HEK293 screen) or 10 minutes (SY5Y screen). […] For forskolin counterscreening in SY5Y cells, forskolin instead of peptide was dispensed to the plate at a final concentration of 5 μM.
(§3) GraphPad Prism ver. 9.0 or 10.0 (GraphPad Software Inc, Boston, MA) was used for data analysis. Concentration response curves were created using a four parameter logistic regression model. EC80 and IC50 parameters were obtained using non-linear regression curve fitting tools. EC80 was calculated as the effective concentration of the agonist required to produce 80% of the maximal response. IC50 was calculated as the concentration of the antagonist that produced 50% of the response induced by an agonist (either PACAP or forskolin) in the absence of the antagonist. Seven or eight different concentrations and three technical replicates per concentration were used for curve fitting. All data are presented as mean ± standard error of the mean (SEM).

The target in experiment [2] is T1, PAC1 (endogenous, mainly PAC1null, SH-SY5Y). In words: CBS assay, antagonism of P38-induced cAMP in SY5Y_CBS cells. Conditions: for IC50: three independent experiments; for P38-induced cAMP elevation blocked to: 0.2 nM P38, SY5Y_CBS, n = 3. It is filed as cell-based.
Source text: as §1, §2, §3

Setting [3] is: IC50 against P38 (Figure 9C), 0.2 nM P38, CBS assay, mean ± SEM.
The mark [4] stands for this setting: 0.2 nM P38 (EC80), SY5Y_CBS, mean ± SEM, Figure 11B, read-out: IC50 of P6-38 C-terminal mutants in CBS assay.

Positions of bridges follow the written chain, without caps; N, C: chain ends. Non-standard residues stand in square brackets, D forms with d. Residues, ends and D or L forms follow the SMILES beside them. No end group written: not given here. Cha = N[C@@H](CC1CCCCC1)C(=O)O A value given as a limit tells only on which side of the number the result lay.

On to `CSCC[C@@H]1NC(=O)[C@@H](NC(=O)[C@H](CCCCN)NC(=O)[C@H](CCCNC(=N)N)NC(=O)[C@H](Cc2ccc(O)cc2)NC(=O)[C@H](CCCNC(=N)N)NC(=O)[C@H](CO)NC(=O)[C@H](Cc2ccc(O)cc2)NC(=O)[C@H](CO)NC(=O)[C@H](CC(=O)O)NC(=O)[C@@H](NC(=O)[C@@H](N)Cc2ccccc2)[C@@H](C)O)CCC(=O)NCCCC[C@@H](C(=O)N[C@@H](CCCCN)C(=O)N[C@@H](Cc2ccc(O)cc2)C(=O)N[C@@H](CC(C)C)C(=O)N[C@@H](C)C(=O)N[C@@H](C)C(=O)N[C@H](C(=O)N[C@@H](CC(C)C)C(N)=O)C(C)C)NC(=O)[C@H](C(C)C)NC(=O)[C@H](C)NC1=O` [P6-27Lb, (c[E16,K20])P6-27] (H-FTDSYSRYRKEMAVKKYLAAVL-NH2; lactam 11-15; N-terminus assumed), for which, in experiment [1], the “antagonist potency vs P6-27” value was “did not increase the inhibitory effect of P6-27” and the IC50 is above 1000 nM.
On the same counts, the results for `CSCC[C@@H]1NC(=O)[C@@H](NC(=O)[C@H](CCCCN)NC(=O)[C@H](CCCNC(=N)N)NC(=O)[C@H](Cc2ccc(O)cc2)NC(=O)[C@H](CCCNC(=N)N)NC(=O)[C@H](CO)NC(=O)[C@H](Cc2ccc(O)cc2)NC(=O)[C@H](CO)NC(=O)[C@H](CC(=O)O)NC(=O)[C@@H](NC(=O)[C@@H](N)Cc2ccccc2)[C@@H](C)O)CCC(=O)NCCCC[C@@H](C(=O)N[C@@H](CCCCN)C(=O)N[C@@H](Cc2ccc(O)cc2)C(=O)N[C@@H](CC2CCCCC2)C(=O)N[C@@H](C)C(=O)N[C@@H](C)C(=O)N[C@H](C(=O)N[C@@H](CC(C)C)C(N)=O)C(C)C)NC(=O)[C@H](C(C)C)NC(=O)[C@H](C)NC1=O` [P6-27Lbx1, (c[E16,K20], Cha23)P6-27] (H-FTDSYSRYRKEMAVKKY[Cha]AAVL-NH2; lactam 11-15; N-terminus assumed) are “did not increase the inhibitory effect of P6-27” and above 1000 nM.
For the compound `CSCC[C@@H]1NC(=O)[C@@H](NC(=O)[C@H](CCCCN)NC(=O)[C@H](CCCNC(=N)N)NC(=O)[C@H](Cc2ccc(O)cc2)NC(=O)[C@H](CCCNC(=N)N)NC(=O)[C@H](CO)NC(=O)[C@H](Cc2ccc(O)cc2)NC(=O)[C@H](CO)NC(=O)[C@H](CC(=O)O)NC(=O)[C@@H](NC(=O)[C@@H](N)Cc2ccccc2)[C@@H](C)O)CCC(=O)NCCCC[C@@H](C(=O)N[C@@H](CCCCN)C(=O)N[C@@H](Cc2ccc(O)cc2)C(=O)N[C@@H](CC(C)C)C(=O)N[C@@H](C)C(=O)N[C@@H](C)C(=O)N[C@H](C(=O)N[C@@H](CC2CCCCC2)C(N)=O)C(C)C)NC(=O)[C@H](C(C)C)NC(=O)[C@H](C)NC1=O` [P6-27Lbx2, (c[E16,K20], Cha27)P6-27] (H-FTDSYSRYRKEMAVKKYLAAV[Cha]-NH2; lactam 11-15; N-terminus assumed), in experiment [1], the “antagonist potency vs P6-27” value is “did not increase the inhibitory effect of P6-27” and the IC50 is above 1000 nM.
With `CSCC[C@H](NC(=O)[C@H](CCC(N)=O)NC(=O)[C@H](CCCCN)NC(=O)[C@H](CCCNC(=N)N)NC(=O)[C@H](Cc1ccc(O)cc1)NC(=O)[C@H](CCCNC(=N)N)NC(=O)[C@H](CO)NC(=O)[C@H](Cc1ccc(O)cc1)NC(=O)[C@H](CO)NC(=O)[C@H](CC(=O)O)NC(=O)[C@@H](NC(=O)[C@@H](N)Cc1ccccc1)[C@@H](C)O)C(=O)N[C@@H](C)C(=O)N[C@H](C(=O)N[C@@H](CCCCN)C(=O)N[C@@H](CCCCN)C(=O)N[C@@H](Cc1ccc(O)cc1)C(=O)N[C@@H](CC(C)C)C(=O)N[C@@H](C)C(=O)N[C@H]1CCC(=O)NCCCC[C@@H](C(=O)N[C@@H](CCCNC(=N)N)C(=O)N[C@@H](Cc2ccc(O)cc2)C(=O)N[C@@H](CCCCN)C(=O)N[C@@H](CCC(N)=O)C(=O)N[C@@H](CCCNC(=N)N)C(=O)N[C@H](C(=O)N[C@@H](CCCCN)C(=O)N[C@@H](CC(N)=O)C(=O)N[C@@H](CCCCN)C(N)=O)C(C)C)NC(=O)CNC(=O)[C@H](CC(C)C)NC(=O)[C@H](C(C)C)NC1=O)C(C)C` [P6-38Lb, (c[E25,K29])P6-38] (H-FTDSYSRYRKQMAVKKYLAEVLGKRYKQRVKNK-NH2; lactam 20-24), the half-maximal inhibitory concentration (IC50) in experiment [2] (setting [3]) is 219 ± 28 nM.
On the same count and under the same terms, next, `CSCC[C@H](NC(=O)[C@H](CCC(N)=O)NC(=O)[C@H](CCCCN)NC(=O)[C@H](CCCNC(=N)N)NC(=O)[C@H](Cc1ccc(O)cc1)NC(=O)[C@H](CCCNC(=N)N)NC(=O)[C@H](CO)NC(=O)[C@H](Cc1ccc(O)cc1)NC(=O)[C@H](CO)NC(=O)[C@H](CC(=O)O)NC(=O)[C@@H](NC(=O)[C@@H](N)Cc1ccccc1)[C@@H](C)O)C(=O)N[C@@H](C)C(=O)N[C@H](C(=O)N[C@@H](CCCCN)C(=O)N[C@@H](CCCCN)C(=O)N[C@@H](Cc1ccc(O)cc1)C(=O)N[C@@H](CC1CCCCC1)C(=O)N[C@@H](C)C(=O)N[C@H]1CCC(=O)NCCCC[C@@H](C(=O)N[C@@H](CCCNC(=N)N)C(=O)N[C@@H](Cc2ccc(O)cc2)C(=O)N[C@@H](CCCCN)C(=O)N[C@@H](CCC(N)=O)C(=O)N[C@@H](CCCNC(=N)N)C(=O)N[C@H](C(=O)N[C@@H](CCCCN)C(=O)N[C@@H](CC(N)=O)C(=O)N[C@@H](CCCCN)C(N)=O)C(C)C)NC(=O)CNC(=O)[C@H](CC(C)C)NC(=O)[C@H](C(C)C)NC1=O)C(C)C` [P6-38Lbx1, (c[E25,K29], Cha23)P6-38] (H-FTDSYSRYRKQMAVKKY[Cha]AEVLGKRYKQRVKNK-NH2; lactam 20-24): 61 ± 12 nM.
In the case of FTDSYSRYRKQMAVKKYLAAVL-NH2 [P6-27], the figures for the “P38-induced cAMP elevation blocked to” value in experiment [2] (P6-27 at 1 μM) and in experiment [2] (until the highest concentration tested (10 μM)) were 50% and ~ 50%, respectively.
For the compound FTDSYSRYRKQMAVKKYLAAVLG-NH2 [P6-28], the IC50 in experiment [2] (0.2 nM P38 (EC80), SY5Y_CBS, Figure 11B, read-out: IC50 of P6-38 C-terminal mutants in CBS assay) was above 1000 nM.
FTDSYSRYRKQMAVKKYLAAVLGKRYK-NH2 [P6-32]: the IC50 in experiment [2] (setting [4]) came out at 72 ± 17 nM.
Same read-out and setting: for “FTDSYSRYRKQMAVKKYLAAVLGKRYKQRVK-NH2 [P6-36]” the value was 90 ± 13 nM.
